The results in this text go back to patent publication US11179384B2, “Treatment of nonalcoholic fatty liver disease” (TAKEDA GMBH, priority 2016, dated 2021).

Series [1] relates to male C57BL/6J mice (high caloric diet). Description: Liver lipidosis / liver weight, 8 weeks treatment in diet induced obese (DIO) mice. Conditions: for Liver weight (Day 56) / Grade Liver Lipidosis (mean): high caloric diet; for Liver weight (Day 56): vehicle HD 1.04, SD 0.96; for Grade Liver Lipidosis (mean): day 56, grades 1 minimal to 4 marked, vehicle HD 1.5. Type of series: in vivo. An excerpt:
Obesity was induced in male C57BL/6J mice (Charles River, Germany; 6 weeks of age weighing 19-20 g at start of study) by feeding a high caloric diet (60% kcal % fat; No. 2127; Provimi-Kliba, Switzerland)) for 7 weeks. Animals were single housed in Makrolon cages type II-Long with free access to food and tap water. When body weight gain exceeded 50% compared to body weight at onset of diet, the animals were randomized according to body weight (day −4) followed by treatment for 8 weeks with daily doses of Compound A (0.3, 1, 3 and 10 mg/kg/day, p.o; dissolved in 4% (w/v) aqueous methocel solution to give the required dose in a volume of 10 mL/kg body weight; n=10 in each group). After 8 weeks of treatment, animals were sacrificed. Liver was removed, weighed and fixed in 4% neutral buffered formalin for 2 days, embedded in paraffine and stained with Hematoxylin-Eosin for histological evaluation. The slides were blinded for histological reading and liver lipidosis was evaluated by light microscopy.
The degree of liver lipidosis was assessed semi-quantitatively by the following grading criteria:
Grade 1 (minimal): small round cytoplasmic vacuoles within hepatocytes
Grade 2 (mild): small to medium sized round cytoplasmic vacuoles within hepatocytes
Grade 3 (moderate): in addition: round cytoplasmic vacuoles, partly forcing the nucleus to the periphery of the cell
Grade 4 (marked): in addition: whole lobe affected
For focal changes or multifocal changes 0.5 or 0.25 were subtracted respectively. The mean severity index was calculated by dividing the sum of all gradings/group by the number of animals/group.

Series [2] in a line: Phase 1 clinical studies (single rising dose and multiple rising dose). Type of series: in vivo, humans. The source says:
Compound A differs from other development candidates intended for the treatment of NAFLD/NASH in that it exerts its effects via anti-inflammatory, anti-fibrotic and anti-steatotic mode of action. […] It is furthermore believed that all of these effects observed in in vitro and animal experiments will translate in corresponding effects in the clinical setting in humans.

In series [3] the test system is alfa smooth muscle actin (αSMA) gene expression in human stellate cells (HSCs). As to the kind of experiment: Anti-fibrotic activity in human hepatic stellate cells (TGF-β-induced αSMA gene expression). Conditions: primary human HSCs; 0.0001-1 μM, TGF-β 0.2 ng/mL, forskolin 1 μM, 24 hours. The format is cell-based. Here is the method: The effect on human stellate cells (HSCs) activation was evaluated by gene expression of alfa smooth muscle actin (αSMA) induced by TGF-β.
Primary HSCs (ScienCell) were suspended in serum-free SteCM medium (ScienCell) and seeded on Poly-D-Lysine-coated 96 well plates as 2.5×10^3 cells/100 uL/well. Six hours after the seeding, HSCs were treated with Compound A (0, 0.0001, 0.001, 0.01, 0.1, and 1 μM), TGF-β (0.2 ng/mL) and forskolin (1 μM) for 24 hours. After the 24-hours incubation, total RNA was extracted from cell lysate using RNeasy 96 Kit (QIAGEN 74182). cDNA was amplified using High-Capacity cDNA Reverse Transcription Kit (ABI 4368813), and target gene mRNA was measured using Taqman PCR. The target gene expression level was normalized by GAPDH. The experiment was repeated 5 times.

In series [4] the test system is Homozygous LDLR-KO mice. As to the kind of experiment: Therapeutic effects in a mouse model of NASH (LDLR-KO mice, mCDAA diet, after fibrosis formation). Type of series: in vivo. The settings on record: 6 weeks mCDAA diet then 4 and 8 mg/kg p.o. QD for 10 weeks (therapeutic). Here is the method:
To evaluate therapeutic potential of Compound A, effects of Compound A were additionally examined after hepatic fibrosis formation. Homozygous LDLR-KO mice were fed with chow or mCDAA diet (A08111307, Research Diets, USA). After 6 week under chow or mCDAA diet, the mice were orally dosed with Compound A (4, and 8 mg/5 mL/kg, QD, n=12; suspension in 0.5 w/v % methylcellulose solution) for 10 weeks.

Series [5] relates to TNFα gene expression. Description: Hepatic gene expression in prophylactic NASH mouse model, TNFα (Taqman PCR). Type of series: in vivo. Conditions: LDLR-KO mice on mCDAA diet; 1, 3 and 10 mg/kg p.o. QD for 7 weeks; liver mRNA. The protocol: (§1) Homozygous low-density lipoprotein receptor knockout (LDLR-KO) mice were fed with chow or modified choline deficient, L-amino acid-defined (mCDAA) diet (A08111307, Research Diets, USA). After 1 week under chow or mCDAA diet, the mice were orally dosed with Compound A (1, 3 and 10 mg/5 ml/kg, QD, n=10; suspension in 0.5 w/v % methylcellulose suspension) for 7 weeks.
(§2) In addition prophylactic effects of Compound A on hepatic gene expression were evaluated. After total RNA was extracted from liver, cDNA was amplified using High-Capacity cDNA Reverse Transcription Kit (ABI 4368813), and target gene mRNA was measured using Taqman PCR. The target gene expression level was normalized by GAPDH.

Series [6] has as its system tissue inhibitor of metalloproteases-1 (TIMP-1) gene expression. Description: Hepatic gene expression in prophylactic NASH mouse model, TIMP-1 (Taqman PCR). Type of series: in vivo. Conditions: LDLR-KO mice on mCDAA diet; 1, 3 and 10 mg/kg p.o. QD for 7 weeks; liver mRNA. The protocol:
as §1, §2
A general note: Quantitative PCR measures a nucleic acid by following its amplification.

Series [7] has as its system Tumor Necrosis Factor Alpha (TNFα). Description: Systemic TNFα release in LPS-challenged Sprague Dawley rats. Type of series: in vivo. The settings on record: SD rats; 0.1, 0.3, 1, 3 and 10 mg/kg p.o. 1 h before LPS 20 μg/kg i.v.; plasma 1 h after LPS; significant at all doses. The protocol:
Compound A was administered 1 h before LPS challenge at doses of 0.1, 0.3, 1, 3 and 10 mg/kg (n=8 animals per dose group). An LPS and vehicle treated control group of n=8 animals was enclosed. Compound A or vehicle was given per os (p.o.) by gavage (administration volume: 10 mL/kg b.w.). LPS was injected intravenously (i.v.) at a dose of 20 μg/kg (administration volume: 1 mL/kg b.w.) 1 h after compound or vehicle administration.
One hour after LPS-challenge, the animals were sacrificed by inhalative isoflurane anaesthesia (5%; flow rate: 2-3 L/min) and subsequent cervical dislocation. Heparinized blood was obtained by heart puncture. Blood was centrifuged (21,000×g, 4° C., 10 min), and plasma samples were kept frozen at −20° C. until determination of TNFα levels by ELISA.

[8] abbreviates: 3 and 10 mg/kg p.o. daily, 8 weeks.

In the case of `CCOc1cc2c(cc1OC)C(c1ccc(=O)n(C)c1)=N[C@@H]1CC[C@@H](O)C[C@H]21` [Compound A, 5-((2R,4aR,10bR)-9-Ethoxy-2-hydroxy-8-methoxy-1,2,3,4,4a,10b-hexahydro-phenanthridin-6-yl)-1-methyl-1H-pyridin-2-one], in series [1] (setting [8]), the “increase in liver weight caused by high caloric diet” value is “completely abolished”. Moreover, in series [1] (setting [8]), the liver lipidosis result is “almost abolished”. In addition, the “Liver weight (Day 56)” value came to 1.08 g in series [1] (0.3 mg/kg p.o. daily, 8 weeks); 1.01 g in series [1] (1.0 mg/kg p.o. daily, 8 weeks); 0.96 g in series [1] (3.0 mg/kg p.o. daily, 8 weeks); 0.95 g in series [1] (10 mg/kg p.o. daily, 8 weeks). For the same compound, the “Grade Liver Lipidosis (mean)” value amounted to 1.4 in series [1] (0.3 mg/kg p.o.), 0.6 in series [1] (1.0 mg/kg p.o.), 0.3 in series [1] (3.0 mg/kg p.o.) and 0.2 in series [1] (10.0 mg/kg p.o.). In series [2] (Phase 1, single dose 0.05 to 0.85 mg, multiple dose 0.05 to 0.8 mg 7 days, 0.35 and 0.8 mg up to 14 days), the “PDE4 inhibitor specific adverse events (diarrhea, nausea)” value is on record as “no PDE4 inhibitor specific adverse events”. Also, the “safety and pharmacokinetic profile” value in series [2] (Phase 1 single rising dose and multiple rising dose studies) is given as “very favorable”. In addition, in series [3], the “TGF-β-induced αSMA gene expression in HSCs” value was “dose-dependently suppressed”. Moreover, the “hepatic TG content” value in series [4] is “significantly reduced from the initial value”. The hepatic fibrosis area result in series [4] was “reduction”. Besides, in series [5], the “hepatic inflammatory TNFα gene expression (normalized by GAPDH)” value is on record as “dose-dependent reduction”. Besides, the “hepatic TIMP-1 gene expression (normalized by GAPDH)” value in series [6] is “dose-dependent reduction”. Further, the “mean TNFα in blood plasma” value in series [7] is on record as “dose-dependently reduced”.
